Laboratory results reported in patent US10472663B2, “Procedure for the rapid determination of bacterial susceptibility to antibiotics that inhibit protein synthesis” (ABM TECHNOLOGIES, LLC, priority 2015, dated 2019).

Legend:
Assay type in all cases: cell-based
Staphylococcus aureus = test: Micromax assay of DNA fragmentation by DNase released with lysostaphin after azithromycin (Example 3); settings: lysostaphin alone 10 μg/ml 1 min; both strains
Description: In an exemplification of this principal, two strains of S. aureus growing in Mueller-Hinton agar with 5% sheep blood were assayed. One strain was susceptible to the macrolide azithromycin (an inhibitor of protein synthesis) (FIGS. 13-15) and the other strain was a clinical isolate resistant to azithromycin (FIGS. 16-18). The purpose was to rapidly distinguish susceptible and non-susceptible strains to azithromycin. Cultures were processed direct from standard growing agar plates 18-24 h and it was not necessary the cells being exponentially growing previously to the assay.
Each of these strain was subjected to four treatments. One portion of both strains was incubated with azithromycin at 2 μg/ml for 120 min; 2 μg/ml being indicated by the CLSI as the breakpoint of susceptibility to azithromycin. The cells were then lysed to release nucleoids and images of FIGS. 13 and 16 were generated. Another portion of each strain was incubated with lysostaphin at 10 μg/ml for 1 min. FIGS. 14 and 17 depict the nucleoids released in each strain for this treatment. Still another portion was incubated with Azithromycin at 2 μg/ml for 120 min followed by lysostaphin at 10 μg/ml for 1 min, without removing the azithromycin. The assays for these treatments can be seen at FIGS. 15 and 18. A final portion was left without either antibiotic.
After the incubation, the cells were processed using the variant of a Micromax technology to lyse cells with affected cell walls. As indicated previously, samples from cells from the culture are immersed in an agarose microgel on a slide and incubated with a specific lysing solution to remove the cell wall in those cells affected by lysostaphin and release in the microgel the nucleoids contained inside the bacteria. These are dried, stained with a highly sensitive fluorochrome for DNA like SYBR Gold and visualized under fluorescence microscopy.

Escherichia coli [1] = test: Micromax assay of ciprofloxacin-induced DNA fragmentation after a protein synthesis inhibitor (Example 1)
Description: As an exemplification of the principals previously described, two strains of Escherichia coli exponentially growing in Mueller-Hinton broth were assayed (FIGS. 1-6). The first strain of Escherichia coli was a TG1 strain susceptible to both the aminoglycoside tobramycin (an inhibitor of protein synthesis) and the quinolone ciprofloxacin (an agent which induces DNA fragmentation by trapping of topoisomerases in DNA) (FIGS. 1-3). The second strain was a clinical isolate resistant to tobramycin and susceptible to ciprofloxacin (FIGS. 4-6). Four treatments were applied to each strain to rapidly distinguish the susceptible and the resistant strain to tobramycin.
One portion of both bacterial strains was incubated with tobramycin at 4 μg/ml for 40 minutes (FIGS. 1 and 4), a dosage indicated by the CLSI as the breakpoint of susceptibility to tobramycin in the standard antibiogram based on microdilution. Another portion of both strains was incubated with ciprofloxacin at 1 μg/ml for 30 min (FIGS. 2 and 5). Still another portion of both strains was incubated with tobramycin at 4 μg/ml for 10 min followed by ciprofloxacin at 1 μg/ml for 30 min, without removing the tobramycin (FIGS. 3 and 6). A final portion was left with no antibiotic.
After each incubation cells were processed using the variant of the Micromax technology to visualize the nucleoids, i.e. bacterial chromosomal DNA, in all the cells of the population. Cells from each culture were immersed in an agarose microgel on a slide and incubated with a specific lysing solution to remove the cell wall in all the cells and release in the microgel the nucleoids contained inside the bacteria. These are dried, stained with a high sensitive fluorochrome for DNA like SYBR Gold and visualized under fluorescence microscopy. FIGS. 1-6 depicts representative images captured under each of the conditions described below.
The above described methodology was employed to rapidly determine the susceptibility of 12 strains of E. coli to tobramycin. One portion of each bacterial strain was incubated with tobramycin at the susceptibility breakpoint dosage, 4 μg/ml, for 40 min. A portion of each strain was incubated with ciprofloxacin at 1 μg/ml for 30 min. Still another portion of each strain was incubated with tobramycin at 4 μg/ml for 10 min followed by ciprofloxacin at 1 μg/ml for 30 min, without removing the tobramycin. A final portion of each strain was left with no antibiotic. E. coli strains were identified as susceptible or not based on the levels of DNA fragmentation in the portion of each strain incubated with ciprofloxacin and the portion incubated with tobramycin and ciprofloxacin.
The principals exemplified in Example 1 were confirmed with the aminoglycoside amikacin. Briefly, a susceptible and resistant strain of E. coli were exposed to similar conditions to those described in Example 1, except that amikacin was utilized as the protein synthesis inhibiting antibiotic. Specifically, each was strain subjected to four treatments. One portion received no antibiotics, and another portion received only a quinolone, such as ciprofloxacin or norfloxacin to induce DNA fragmentation. Still another portion received the protein synthesis inhibiting antibiotic aminoglycoside amikacin, followed by the quinolone. Another portion received only amikacin. A final portion received neither antibiotic.
The principals exemplified in Example 1 were further confirmed with the aminoglycoside gentamicin. Briefly, the rapid test was performed on 15 isolated E. coli strains according to the methodology described above, except that gentamicinin was utilized as the protein synthesis inhibiting antibiotic. Suppressed DNA fragmentation were used to characterize bacterial susceptibility and those characterizations were verified with the standard antibiogram for gentamicin by microdilution. […]

Escherichia coli [2] = test: Micromax assay of mitomycin C-induced DNA fragmentation after tobramycin (Example 2); settings: mitomycin C alone 50 μg/ml 60 min; both strains
Description: FIGS. 7-9 depict a TG1 strain susceptible to the aminoglycoside tobramycin, an inhibitor of protein synthesis, and mitomycin C, an agent which induces DNA damage. The other strain illustrated in FIGS. 10-12 was a clinical isolate resistant to tobramycin.
One portion of both bacterial strains was incubated with tobramycin at 4 μg/ml for 90 min (FIGS. 7 and 10), a dosage indicated by the CLSI as the breakpoint of susceptibility to tobramycin in the standard antibiogram based on microdilution. Another portion of both strains was incubated with mitomycin C at 50 μg/ml for 60 min (FIGS. 8 and 11). Still another portion of both strains was incubated with tobramycin at 4 μg/ml for 30 min followed by mitomycin C at 50 μg/ml for 60 min, without removing the tobramycin (FIGS. 9 and 12). A final portion was left with no antibiotic.
After incubation, cells were processed using a variant of the Micromax technology to visualize nucleoids, i.e. bacterial chromosomal DNA, in all the cells of the population. Samples from cells from the culture are immersed in an agarose microgel on a slide and incubated with a specific lysing solution to remove the cell wall in all the cells and release in the microgel the nucleoids contained inside the bacteria. These are dried, stained with a highly sensitive fluorochrome for DNA like SYBR Gold and visualized under fluorescence microscopy, Nucleoids from E. coli obtained using the Micromax assay are represented in FIGS. 7-12, FIGS. 7-9 correspond to a strain susceptible to tobramycin (TG1) and FIGS. 10-12 to a strain resistant to tobramycin.

Escherichia coli [3] = test: Variant Micromax assay of cell enlargement by low-dose mitomycin C after tobramycin (Example 8); settings: mitomycin C alone 0.5 μg/ml 60 minutes; both strains
Description: As an example, two strains of Escherichia coli exponentially growing in Mueller-Hinton broth were incubated under four different conditions and then assayed. One strain was susceptible and the other resistant to the aminoglycoside tobramycin (an inhibitor of protein synthesis). For the purpose of rapidly distinguishing susceptible and non-susceptible strains to tobramycin each strain was incubated under four conditions.
A portion of each strain was incubated with tobramycin at 4 μg/ml for 90 minutes. As described previously, this dose is indicated by the CLSI as the breakpoint of susceptibility to tobramycin in the standard antibiogram based on microdilution. Another portion of both strains was incubated in Mitomycin C at 0.5 μg/ml for 60 minutes. Still another portion of each strain was incubated with tobramycin at 4 μg/ml for 30 minutes followed by mitomycin C at 0.5 μg/ml for 60 minutes, without removing the tobramycin. A final portion of both strains was not incubated with either antibiotic.
After the incubation, cells were processed using a variant Micromax technology to visualize any enlargement or not of the bacteria. Samples from cells from the culture were immersed in an agarose microgel on a slide, dried, stained with a highly sensitive fluorochrome for DNA like SYBR Gold and visualized under fluorescence microscopy to visualize cell shape and size. Images were similar those correspondent to the previous figure.

Enterococcus faecalis = test: Variant Micromax assay of cell lysis by lysozyme after erythromycin (Example 6)
Description: As an example, two strains of Enterococcus faecalis exponentially growing in Mueller-Hinton broth were incubated under four different conditions and then assayed. […] Each strain was subjected to four treatments for the purpose of rapidly distinguishing the susceptible and the resistant strain to erythromycin.
The dose was that indicated by the CLSI as the breakpoint of susceptibility to erythromycin in the standard antibiogram based on microdilution. Another portion of both strains was incubated with lysozyme 1 mg/ml, 10 min at 37° C. […]
After incubation with lysozyme, the cells were processed using a variant of the Micromax technology to visualize the nucleoids, i.e. spreading of the bacterial chromosomal DNA, in all the cells of the population. Samples from the cultures were immersed in an agarose microgel on a slide and incubated with a specific lysing solution to remove the cell wall in all the cells and release in the microgel the nucleoids contained inside the bacteria. These are dried, stained with a highly sensitive fluorochrome for DNA like SYBR Gold and visualized under fluorescence microscopy.

Pseudomonas aeruginosa [4] = test: Variant Micromax assay of cell enlargement by ceftazidime after tobramycin (Example 7); settings: ceftazidime alone 0.5 μg/ml 60 minutes; both strains
Description: As an example, two strains of Pseudomonas aeruginosa exponentially growing in Mueller-Hinton broth were assayed. These strains were both susceptible to the β-lactam ceftazidime, which inhibits peptidoglycan synthesis. One strain was susceptible and the other resistant to the aminoglycoside tobramycin (an inhibitor of protein synthesis). For the purpose of rapidly distinguishing the susceptible and the resistant strain to tobramycin each strain was subjected to four treatments.
A portion of each strain was incubated with tobramycin at 4 μg/ml (the CLSI breakpoint of susceptibility) for 75 minutes. An assay of this portion is depicted at FIGS. 31 and 34. Another portion of each strain was incubated with ceftazidime at 0.5 μg/ml for 60 minutes. An assay of this portion is depicted at FIGS. 32 and 35. Still another portion of both strains was incubated with tobramycin at 4 μg/ml for 15 minutes followed by ceftazidime at 0.5 μg/ml for 60 minutes, without removing the tobramycin. Assays of these strains can be seen at FIGS. 33 and 36, respectively. A final portion of each strain was not treated with either antibiotic.
After incubation with the antibiotics, cells were processed using a variant Micromax technology to visualize the enlargement or not of the bacteria. Samples from each culture were immersed in an agarose microgel on a slide, dried, stained with a high sensitive fluorochrome for DNA like SYBR Gold and visualized under fluorescence microscopy to visualize cell shape and size.

Pseudomonas aeruginosa [5] = test: Variant Micromax assay of cell wall damage by meropenem after tobramycin (Example 5); settings: meropenem alone 0.2 μg/ml 60 min; both strains
Excerpt: As an exemplification of this principal, FIGS. 19-24 illustrates assays of two strains of Pseudomonas aeruginosa exponentially growing in Mueller-Hinton broth. Both strains were both susceptible to the β-lactam meropenem, which inhibits peptidoglycan synthesis. One strain was susceptible (FIGS. 19-21) and the other resistant (FIGS. 22-24) to the aminoglycoside tobramycin (inhibitor of protein synthesis).
For the purpose of rapidly distinguishing susceptible and resistant (i.e. non-susceptible) strains to tobramycin each strain was subjected to four treatments. A portion of each strain was incubated with tobramycin at 4 μg/ml for 75 min (FIGS. 19 and 22). The dose utilized, was indicated by the CLSI as the breakpoint of susceptibility to tobramycin. FIGS. 20 and 23 illustrate an assay from another portion of each strain, which was incubated with Meropenem at 0.2 μg/ml for 60 min. FIGS. 21 and 24, illustrate assays from still another portion of both strains which was incubated with tobramycin at 4 μg/ml for 15 min followed by meropenem at 0.2 μg/ml for 60 min, without removing the tobramycin. Still another portion of both strains was maintained without the addition of either antibiotic.
After incubation cells were processed using a variant Micromax technology to visualize the affectation or not of the cell wall based on the release or not of the nucleoids contained inside the bacteria. In the same manner described previously, samples from cells from the culture are immersed in an agarose microgel on a slide and incubated with a specific lysing solution that removes the cell wall only in those bacteria whose peptidoglycan was affected, thus releasing in the microgel the nucleoids contained inside. […] The processed bacteria in microgel are dried, stained with a high sensitive fluorochrome for DNA like SYBR Gold and visualized under fluorescence microscopy.

[6] = rapid test, confirmed by microdilution antibiogram, 12 strains for tobramycin, 15 for gentamicin

lysostaphin
DNA fragmentation of released nucleoids (Staphylococcus aureus): release of nucleoids with a large extent of DNA fragmentation

gentamicin
E. coli strains identified as non-susceptible (resistant) (Escherichia coli [1]; [6]): 5 | E. coli strains identified as susceptible (Escherichia coli [1]; [6]): 10

CO[C@@]12[C@H](COC(N)=O)C3=C(C(=O)C(C)=C(N)C3=O)N1C[C@@H]1N[C@@H]12 [mitomycin C]
DNA fragmentation of nucleoids (Escherichia coli [2]): nucleoids with fragmented DNA in both strains | cell enlargement (Escherichia coli [3]): significant cell enlargement

NCC[C@H](O)C(=O)N[C@@H]1C[C@H](N)[C@@H](O[C@H]2O[C@H](CN)[C@@H](O)[C@H](O)[C@H]2O)[C@H](O)[C@H]1O[C@H]1O[C@H](CO)[C@@H](O)[C@H](N)[C@H]1O [amikacin]
outcome of rapid susceptibility test with another protein synthesis inhibitor (Escherichia coli [1]; inhibitor followed by a quinolone, susceptible and resistant E. coli): successfully determined

O=C(O)c1cn(C2CC2)c2cc(N3CCNCC3)c(F)cc2c1=O [ciprofloxacin]
DNA fragmentation of nucleoids (Escherichia coli [1]; ciprofloxacin alone 1 μg/ml 30 min, both strains): nucleoids with extensive fragmented DNA | inhibitory response on lysis by lysozyme (Enterococcus faecalis; incubation with quinolones instead of a protein synthesis inhibitor): has not been obtained

lysozyme
partially lysed cells with spreading nucleoid fibers (Enterococcus faecalis; lysozyme 1 mg/ml 10 min at 37° C. and lysing solution, no erythromycin, erythromycin-resistant strain): 97.36% | lysed cells releasing nucleoid fibers (Enterococcus faecalis; lysozyme 1 mg/ml 10 min at 37° C. and lysing solution, no erythromycin, erythromycin-susceptible strain): 92.13%

CC(C)(O/N=C(\C(=O)N[C@@H]1C(=O)N2C(C(=O)[O-])=C(C[n+]3ccccc3)CS[C@H]12)c1csc(N)n1)C(=O)O [ceftazidime]
cell enlargement (Pseudomonas aeruginosa [4]): significant cell enlargement

C[C@@H](O)[C@H]1C(=O)N2C(C(=O)O)=C(S[C@@H]3CN[C@H](C(=O)N(C)C)C3)[C@H](C)[C@H]12 [meropenem]
release of nucleoids (cell wall damage) (Pseudomonas aeruginosa [5]): releasing of nucleoids due to affectation of the cell wall
